# Tests used:
# TNF-α = assay: Real time PCR, left ventricular TNF-α mRNA expression; assay type: in vivo, rat; details: LPS infusion
# Protocol: Total RNA was isolated from left ventricular tissue using the SV Total Isolation System (Promega Corp., Madison, Wis.). Isolation was performed according to manufacturer instructions and followed by DNAse treatment to eliminate residual genomic DNA contamination. RNA integrity was determined by loading 1.0 μg of total RNA isolate from each sample onto a 1.0% agarose gel and staining with ethidium bromide to visualize the 18 and 28s RNA bands. The amount of RNA recovered was determined using the Ribogreen RNA Quantification Kit (Molecular Probes, Eugene, Oreg.). […]
# Specific primer sequences, GenBank accession numbers, Sequence Identifiers, and product sizes are disclosed in Table 5. […] For real-time PCRs, SYBR PCR Master Mix (Bio-Rad Laboratories, Hercules, Calif.) was used, and thermocycling and fluorescence detection was performed using a Stratagene Mx3000p real-time PCR machine.
# After confirmation of primer efficiency and specificity, the concentrations of purified products generated by standard PCR were determined using Molecular Probe's Picogreen DNA quantification kit, and PCR products were serially diluted to obtain standards containing 10^1, 10^2, 10^3, 10^4, 10^5, and 10^6 copies of synthetic template. […]
# rat isolated hearts = assay: Langendorff rat isolated heart procedure: left ventricular function and coronary flow; assay type: in vivo; details: for Coronary flow Baseline / Coronary flow 30 min / Coronary flow 60 min / Coronary flow 90 min / Coronary flow 120 min / Coronary flow 150 min: mean ± SEM
# Protocol: Male Sprague Dawley, virus-free rats (Harlan) were used in each of the examples presented herein. After arrival and a brief acclimation (72 hours minimum), animals were randomized into control or experimental groups. The control and experimental protocols (Table 1) and experimental group treatments (Table 2) are described below.
# Rat isolated heart experiments were performed via Langendorff method. […] CON hearts received vehicle (IP sterile water). […] Heparin was allowed to circulate for 60 seconds at which time a thoracotomy was performed to expose the heart. The heart was quickly removed, placed in ice cold Krebs-Ringers bicarbonate buffer (KRB, described below) and weighed. The ascending aorta was rapidly cannulated and the heart was attached, via the cannula, to the perfusion apparatus. The hearts were perfused with a modified KRB containing (102 mM NaCl, 4.75 mM KCl, 1.20 mM KH2PO4, 1.18 mM MgSO4, 22.75 mM NaHCO3, 11.50 mM Glucose, 4.96 mM Na-Pyruvate, 5.40 mM Na-Fumarate and 1 mM CaCl2), at a temperature of 37.0° C., and pH 7.4 as maintained by vigorous bubbling with 95%/5% O2/CO2.
# At all times, hearts were perfused with KRB at a pressure of 72-78 mmHg set by the height of the water-jacketed reservoir. The left atrium of the heart was then removed, just above the left atrio-ventricular valve. A latex balloon was used to measure left ventricular pressure as an index of cardiac performance. The balloon was constructed by filling the reservoir tip of a latex condom with degassed water. PE-50 tubing, pre-filled with degassed water and attached to a stopcock/Hamilton screw-top syringe assembly, was flanged and placed into the tip of the condom. Surgical silk (5-0) was used to gather the condom tip around the flanged end of the tubing and form a seal, at which time the excess latex was removed.
# The balloon/stopcock assembly was attached to a pressure transducer (Spectramed-Statham) and inserted into the left ventricle to record cardiac performance data via Windaq (DATAQ, CA). Two platinum electrodes, connected to a electrical stimulator (Grass Model 92C), were placed at the lateral edges of the right atria in order to pace the heart at 300 BPM using a voltage 10% greater than that required to capture rhythm. The volume in the latex balloon was increased to produce a left ventricular diastolic pressure (LVdiaP) of 10.0 mmHg.
# The heart was then perfused normally for 30 minutes, a period designated as the equilibration phase. During this phase of perfusion hearts had to maintain a LVdiaP of 10.0±2.0 mmHg to be included in the study. At the end of thirty minutes, baseline measurements of coronary flow and left ventricular pressure were made. This time point was designated as 0 minutes. At this time, hearts receiving LPS (10 μg/mL/min) were infused via injection port/stop cock assembly, into the KRB perfusion stream, just above the aortic cannula for a total infusion time of 60 minutes. Hearts not receiving LPS were infused with vehicle (sterile water, 1.25% coronary flow (mL)·min). At 60 minutes, infusion was halted and normal KRB perfusion continued for 90 minutes (total experimental time post-equilibration=150 minutes).
# Measurements of coronary flow and left ventricular pressure were taken every 30 minutes starting at 0 minutes. At the termination of the experiment, the left ventricle was rapidly excised from the whole heart, flash frozen in liquid nitrogen and stored at −80.0° C. for further analysis.
# Statistical analysis was performed on data generated from these experimental protocols using a one-way analysis of variance (one-way ANOVA) with pair wise comparisons (Fisher Least Significant Difference test (LSD)). Data is presented herein as mean±standard error of the mean (SEM).
# The Fisher LSD was used to determine whether 30 and 150 min values differed from baseline values. In addition, changes from baseline values (e.g., 30 or 150 minute value−respective baseline value) were compared among groups.
# ADA1 = assay: Real time PCR, left ventricular ADA1 mRNA expression; assay type: in vivo, rat
# Protocol: Total RNA was isolated from left ventricular tissue using the SV Total Isolation System (Promega Corp., Madison, Wis.). Isolation was performed according to manufacturer instructions and followed by DNAse treatment to eliminate residual genomic DNA contamination. RNA integrity was determined by loading 1.0 μg of total RNA isolate from each sample onto a 1.0% agarose gel and staining with ethidium bromide to visualize the 18 and 28s RNA bands. The amount of RNA recovered was determined using the Ribogreen RNA Quantification Kit (Molecular Probes, Eugene, Oreg.). 1 μg of total RNA was reverse transcribed in a […] using random hexamer primers with enzyme and buffers supplied in the cDNA First Strand Synthesis kit (MRI Fermentas, Hanover, Md.). First strand cDNA was treated with ribonuclease H to remove residual RNA.
# Real time PCR (qPCR) was performed to measure RNA transcripts for left ventricular TNF-α and ADA1. Three housekeeping genes were selected as follows to produce an intergroup correction factor for target transcripts: Cyclophilin A, hypoxanthine-guanine physphoribosyltransferase (HPRT), and β-actin. Primers were selected using Primer 3 software (Rosen and Skaletsky, Whitehead Institute for Biomedical Research) with the rat genomic sequences for TNF gene, ADA gene, HPRT gene, β-actin gene, and Cyclophilin gene as templates. BLAST (National Center for Biotechnology Information) searches were used to verify that the selected primers were specific for the designated target.
# Specific primer sequences, GenBank accession numbers, Sequence Identifiers, and product sizes are disclosed in Table 5. Primers were used in a standard PCR with the 2× Master Mix PCR reagent (MRI Fermentas) and cDNA from the tissue of interest as a template. The thermocycling profile consisted of one cycle of 95° C. for 10 minutes, followed by 41 cycles of 95° C. for 1 minute, 61° C. for 1 minute, and 72° C. for 1 minute and a final cycle of 72° C. for 10 minutes. Products were run on a 1.0% agarose gel and stained with ethidium bromide to confirm that only one band was amplified and that no primer dimers were present. PCR products were then column-purified (QIAGEN, Valencia, Calif.) and sequenced to confirm target specificity. For real-time PCRs, SYBR PCR Master Mix (Bio-Rad Laboratories, Hercules, Calif.) was used, and thermocycling and fluorescence detection was performed using a Stratagene Mx3000p real-time PCR machine.
# Standards were then amplified by real-time PCR, and standard curves were generated using Stratagene Mx3000P software. […]
# A housekeeping gene was selected for normalization of the real-time PCR data for the TNF-α and ADA1 transcripts. Three potential gene (mRNA) products were analyzed for this purpose: CYC, β-actin and HPRT.
# ADA = ADA (Homo sapiens, UniProt P00813); details: cited from earlier work
# ADA, sequence (P00813 whole entry, species assumed): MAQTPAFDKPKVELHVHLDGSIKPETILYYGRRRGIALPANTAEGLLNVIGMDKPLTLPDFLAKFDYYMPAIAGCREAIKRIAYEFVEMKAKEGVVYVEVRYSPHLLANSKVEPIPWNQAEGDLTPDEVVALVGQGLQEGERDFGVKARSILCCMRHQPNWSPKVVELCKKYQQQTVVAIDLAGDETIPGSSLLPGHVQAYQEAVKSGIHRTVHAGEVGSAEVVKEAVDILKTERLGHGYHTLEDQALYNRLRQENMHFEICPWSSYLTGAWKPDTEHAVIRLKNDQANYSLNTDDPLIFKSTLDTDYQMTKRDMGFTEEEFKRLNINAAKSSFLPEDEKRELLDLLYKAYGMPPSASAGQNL
smiles,measurement,setting,value
"Oc1ncnc2[nH]ncc12 [ALO, allopurinol]",left ventricular TNF-α mRNA expression compared to LPS hearts,TNF-α,significantly lower
same,Coronary flow Baseline,rat isolated hearts; LPS infusion 10 μg/mL/min (-LPS group),24.1 ± 1.3 mL/min
same,Coronary flow 30 min,rat isolated hearts; LPS infusion (-LPS group),24.2 ± 1.1 mL/min
same,Coronary flow 60 min,rat isolated hearts; LPS infusion (-LPS group),24.7 ± 1.4 mL/min
same,Coronary flow 90 min,rat isolated hearts; LPS infusion (-LPS group),24.5 ± 1.4 mL/min
same,Coronary flow 120 min,rat isolated hearts; LPS infusion (-LPS group),23.4 ± 1.7 mL/min
same,Coronary flow 150 min,rat isolated hearts; LPS infusion (-LPS group),22.5 ± 1.7 mL/min
same,+dP/dt compared to respective baseline,"rat isolated hearts; LPS infusion, 30 minutes",significantly greater
same,LV developed pressure compared to respective baseline,"rat isolated hearts; LPS infusion, 30 minutes",significantly greater
same,LV diastolic pressure compared to respective baseline,"rat isolated hearts; LPS infusion, 30 minutes",significantly decreased
same,increase in LV developed pressure compared to LPS group,"rat isolated hearts; LPS infusion, 30 minutes",of a similar magnitude
same,increase in LV systolic pressure compared to LPS group,"rat isolated hearts; LPS infusion, 30 minutes",of a similar magnitude
same,increase in −dP/dt compared to LPS group,"rat isolated hearts; LPS infusion, 30 minutes",similar
same,+dP/dt compared to LPS hearts,"rat isolated hearts; LPS infusion, 150 minutes",did not statistically change
same,+dP/dt compared to respective baseline,"rat isolated hearts; LPS infusion, 150 minutes",significantly decreased
same,LV developed pressure compared to LPS hearts,"rat isolated hearts; LPS infusion, 150 minutes",of a similar magnitude
same,LV developed pressure compared to respective baseline,"rat isolated hearts; LPS infusion, 150 minutes",significantly decreased
same,LV diastolic pressure (LPS-induced increase) compared to LPS hearts,"rat isolated hearts; LPS infusion, 150 minutes",attenuation
same,LV systolic pressure compared to respective baseline,"rat isolated hearts; LPS infusion, 150 minutes",significantly decreased
same,−dP/dt compared to LPS alone / among groups,"rat isolated hearts; LPS infusion, 150 minutes",did not significantly affect
same,−dP/dt compared to respective baseline,"rat isolated hearts; LPS infusion, 150 minutes",significantly decreased
same,Coronary flow 30 min,rat isolated hearts; vehicle infusion (-CON group),25.9 ± 1.8 mL/min
same,Coronary flow 60 min,rat isolated hearts; vehicle infusion (-CON group),25.1 ± 1.9 mL/min
same,Coronary flow 90 min,rat isolated hearts; vehicle infusion (-CON group),24.7 ± 1.9 mL/min
same,Coronary flow 120 min,rat isolated hearts; vehicle infusion (-CON group),24.1 ± 1.6 mL/min
same,Coronary flow 150 min,rat isolated hearts; vehicle infusion (-CON group),22.6 ± 1.4 mL/min
same,Coronary flow Baseline,rat isolated hearts; vehicle infusion (-CON group),25.4 ± 2.1 mL/min
same,LV diastolic pressure compared to respective baseline,"rat isolated hearts; vehicle infusion, 30 minutes",No changes
same,LV developed pressure compared to respective baseline,"rat isolated hearts; vehicle infusion, 150 minutes",No changes
same,LV diastolic pressure compared to respective baseline,"rat isolated hearts; vehicle infusion, 150 minutes",remained unchanged
same,LV systolic pressure compared to respective baseline,"rat isolated hearts; vehicle infusion, 150 minutes",no change
same,−dP/dt compared to respective baseline,"rat isolated hearts; vehicle infusion, 150 minutes",remained unchanged
same,left ventricular ADA1 mRNA expression (copy numbers) compared to CON and LPS hearts,ADA1; LPS infusion,No significant differences
same,left ventricular ADA1 mRNA expression (copy numbers) compared to CON and LPS hearts,ADA1; vehicle infusion,No significant differences
OC[C@H]1O[C@@H](n2cnc3c2N=CNCC3O)C(O)[C@H]1O (some centres unmarked) [coformycin],Ki,ADA,0.01 nM

# Source: US20100261666A1, “COMPOSITIONS AND METHODS FOR THE TREATMENT OF MYOCARDIAL DYSFUNCTION ASSOCIATED WITH SIRS OR SEPSIS” (THE BOARD OF TRUSTEES OF THE UNIVERSITY OF ILLINOIS, priority 2009, published 2010)
